Test results published in article PMC4303209, “A novel phosphatidylinositol 3-kinase (PI3K) inhibitor directs a potent FOXO-dependent, p53-independent cell cycle arrest phenotype characterized by the differential induction of a subset of FOXO-regulated genes” (Breast Cancer Research : BCR, 2014).

Tested on: MCF-7 breast cancer cells
Test: Microarray gene expression analysis (Agilent whole human genome 4 x 44K; compound vs DMSO, LIMMA log2 fold change)
Type: cell-based
Conditions: Apoptosis genes

Oc1cccc(-c2nc(N3CCOCC3)c3oc4ncccc4c3n2)c1 [PI-103]
PML log2FC (Gene 5371): -0.410
POLR2G log2FC (Gene 5436): 0.401
POU3F3 log2FC (Gene 5455): -0.338
POU4F1 log2FC (Gene 5457): -0.488
POU4F3 log2FC (Gene 5459): -0.095
PPARD log2FC (Gene 5467): -0.189
PPARG log2FC (Gene 5468): -0.320
PPID log2FC (Gene 5481): -0.224
PPP1CA log2FC (Gene 5499): -0.185
PPP2CA log2FC (Gene 5515): -0.522
PPP2CB log2FC (Gene 5516): -0.272
PPP2R1B log2FC (Gene 5519): -0.663
PPP2R2B log2FC (Gene 5521): 0.085
PPP2R4 log2FC (Gene 5524): -0.318
PPP2R5C log2FC (Gene 5527): 0.778
PPP3CC log2FC (Gene 5533): 0.049
PPP3R1 log2FC (Gene 5534): -0.344
PPT1 log2FC (Gene 5538): 0.180
PRF1 log2FC (Gene 5551): 0.035
PRKAA1 log2FC (Gene 5562): 0.297
PRKAA2 log2FC (Gene 5563): 0.067
PRKCA log2FC (Gene 5578): -0.157
PRKCD log2FC (Gene 5580): 0.117
PRKCE log2FC (Gene 5581): -0.00329
PRKCG log2FC (Gene 5582): 0.076
PRKCH log2FC (Gene 5583): -0.184
PRKCI log2FC (Gene 5584): 0.477
PKN2 log2FC (Gene 5586): 0.513
PRKD1 log2FC (Gene 5587): 0.547
PRKCQ log2FC (Gene 5588): 0.186
PRKCZ log2FC (Gene 5590): 0.565
PRKDC log2FC (Gene 5591): 0.275
MAPK3 log2FC (Gene 5595): -0.116
MAPK7 log2FC (Gene 5598): -0.110
MAP2K6 log2FC (Gene 5608): 0.357
PRODH log2FC (Gene 5625): -0.118
LGMN log2FC (Gene 5641): -0.107
PSEN1 log2FC (Gene 5663): 0.372
PSEN2 log2FC (Gene 5664): -0.390
PSMA2 log2FC (Gene 5683): 0.170
PSMA3 log2FC (Gene 5684): 0.144
PSMA4 log2FC (Gene 5685): 0.470
PSMA6 log2FC (Gene 5687): 0.068
PSMB1 log2FC (Gene 5689): 0.009
PSMB2 log2FC (Gene 5690): -0.432
PSMB4 log2FC (Gene 5692): 0.171
PSMB5 log2FC (Gene 5693): -0.219
PSMB6 log2FC (Gene 5694): -0.080
PSMB9 log2FC (Gene 5698): -0.100
PSMB10 log2FC (Gene 5699): -0.116
PSMC1 log2FC (Gene 5700): -0.009
PSMC2 log2FC (Gene 5701): 0.279
PSMC3 log2FC (Gene 5702): -0.185
PSMC5 log2FC (Gene 5705): -0.314
PSMC6 log2FC (Gene 5706): 0.515
PSMD1 log2FC (Gene 5707): 0.029
PSMD3 log2FC (Gene 5709): -0.074
PSMD4 log2FC (Gene 5710): -0.036
PSMD5 log2FC (Gene 5711): 0.189
PSMD7 log2FC (Gene 5713): 0.00364
PSMD8 log2FC (Gene 5714): -0.122
PSMD9 log2FC (Gene 5715): -0.396
PSMD10 log2FC (Gene 5716): -0.344
PSMD11 log2FC (Gene 5717): -0.327
PSMD12 log2FC (Gene 5718): -0.768
PSME1 log2FC (Gene 5720): 0.313
PTEN log2FC (Gene 5728): 0.958
PTGFR log2FC (Gene 5737): -0.038
PTGIS log2FC (Gene 5740): -0.013
PTH log2FC (Gene 5741): -0.180
PTGS2 log2FC (Gene 5743): -0.053
PTK2 log2FC (Gene 5747): 0.040
PTPN6 log2FC (Gene 5777): 0.257
PTPRC log2FC (Gene 5788): -0.026
PTPRH log2FC (Gene 5794): 0.545
RAC1 log2FC (Gene 5879): -0.226
RAD9A log2FC (Gene 5883): 0.679
RAD21 log2FC (Gene 5885): 0.829
RAG1 log2FC (Gene 5896): 0.688
RALB log2FC (Gene 5899): 0.076
RARA log2FC (Gene 5914): -0.310
RARG log2FC (Gene 5916): -0.122
RASA1 log2FC (Gene 5921): 0.472
RASGRF2 log2FC (Gene 5924): 0.069
RB1 log2FC (Gene 5925): 0.674
RELA log2FC (Gene 5970): -0.351
DPF2 log2FC (Gene 5977): 0.525
REST log2FC (Gene 5978): 0.317
ROBO1 log2FC (Gene 6091): 0.307
ROBO2 log2FC (Gene 6092): 0.013
ROCK1 log2FC (Gene 6093): 0.642
RPS3A log2FC (Gene 6189): 0.496
RPS6 log2FC (Gene 6194): 0.259
RPS6KA1 log2FC (Gene 6195): -0.106
RPS6KA3 log2FC (Gene 6197): 0.273
RPS6KB1 log2FC (Gene 6198): 0.247
RPS27A log2FC (Gene 6233): 0.447
RTKN log2FC (Gene 6242): -0.055
SORT1 log2FC (Gene 6272): 0.382
S100A8 log2FC (Gene 6279): -0.346
S100B log2FC (Gene 6285): -0.112
SATB1 log2FC (Gene 6304): 0.836
SCT log2FC (Gene 6343): -0.026
CCL2 log2FC (Gene 6347): -0.193
CCL3 log2FC (Gene 6348): -0.075
CCL5 log2FC (Gene 6352): 0.070
CCL21 log2FC (Gene 6366): -0.020
CX3CL1 log2FC (Gene 6376): -0.245
CXCL12 log2FC (Gene 6387): -0.262
MAP2K4 log2FC (Gene 6416): -0.057
SET log2FC (Gene 6418): 0.155
SFRP1 log2FC (Gene 6422): 0.243
SFRP2 log2FC (Gene 6423): -0.008
SFRP4 log2FC (Gene 6424): 0.079
SFRP5 log2FC (Gene 6425): -0.036
ITSN1 log2FC (Gene 6453): 0.185
SHB log2FC (Gene 6461): -0.563
SHH log2FC (Gene 6469): -0.168
SIAH1 log2FC (Gene 6477): 0.170
SIAH2 log2FC (Gene 6478): -0.479
STIL log2FC (Gene 6491): 0.014
SIX1 log2FC (Gene 6495): -0.700
SKI log2FC (Gene 6497): -0.565
SLC9A1 log2FC (Gene 6548): -0.632
SLIT3 log2FC (Gene 6586): -0.267
SNAI2 log2FC (Gene 6591): 0.040
SMO log2FC (Gene 6608): 0.037
SMPD1 log2FC (Gene 6609): 0.629
SMPD2 log2FC (Gene 6610): -0.222
SIGLEC1 log2FC (Gene 6614): -0.395
SNAI1 log2FC (Gene 6615): -0.868
SNCB log2FC (Gene 6620): -0.584
SNCA log2FC (Gene 6622): -0.028
SOD2 log2FC (Gene 6648): 0.190
SON log2FC (Gene 6651): -0.153
SOX2 log2FC (Gene 6657): 0.228
SOX4 log2FC (Gene 6659): 0.369
SOX9 log2FC (Gene 6662): -2.014
SOX10 log2FC (Gene 6663): -0.037
SP100 log2FC (Gene 6672): 0.688
SPI1 log2FC (Gene 6688): -0.418
SPN log2FC (Gene 6693): 0.011
SRC log2FC (Gene 6714): -0.352
SRPK2 log2FC (Gene 6733): 0.776
SST log2FC (Gene 6750): 0.576
SSTR3 log2FC (Gene 6753): -0.180
STAR log2FC (Gene 6770): -0.178
STAT1 log2FC (Gene 6772): 0.221
STAT5A log2FC (Gene 6776): 0.392
STAT5B log2FC (Gene 6777): 0.109
STK4 log2FC (Gene 6789): -0.017
STK11 log2FC (Gene 6794): 0.00114
STXBP1 log2FC (Gene 6812): -0.400
SUPV3L1 log2FC (Gene 6832): 0.284
ADAM17 log2FC (Gene 6868): 0.527
TAF9 log2FC (Gene 6880): 0.095
MAP3K7 log2FC (Gene 6885): 0.00173
